Data on 21 molecules can be found in US8614218B2, “Fused bicyclic pyrimidines” (Bayer Intellectual Property GmbH, priority 2007, dated 2013).

Molecules are shown by their SMILES.

The test has as its system A549 cells. In words: Cellular proliferation/cytotoxicity assay (Alamar Blue), A549. It counts as cell-based. The following applies: Homo sapiens, 72 h, Alamar Blue (Resazurin), read-out: Anti-proliterative/Cytotoxic activity (A549 cells). How it is done: Cellular Proliferation/Cytotoxicity Assay:
The anti-proliferative activity of the compounds as described herein, is evaluated using the OvCAR3, HCT116 and A549 cell lines and the Alamar Blue (Resazurin) cell viability assay (O'Brien et al. Eur J Biochem 267, 5421-5426, 2000). Resazurin is reduced to the fluorescent resorufin by cellular dehydrogenase activity, correlating with viable, proliferating cells. Test compounds are dissolved as 10 mM solutions in DMSO and subsequently diluted. Cells like HCT116 or A549 cells were seeded into 96 well flat bottom plates at a density of 10000 cells/well (OvCAR3 cells), 1000 cells/well (HCT116 cells) or 2000 cells/well (A549 cells) in a volume of 200 μl/well. 24 hours after seeding, 1 μl each of the compound dilutions are added into each well of the 96 well plates. Each compound dilution is tested as at least as duplicates. Wells containing untreated control cells were filled with 200 μl DMEM (Dulbecco's Modified Eagle Medium) containing 0.5 vol % v:v DMSO. The cells are then incubated with the substances for 72 h at 37° C. in a humidified atmosphere containing 5 vol % CO2. To determine the viability of the cells, 20 μl of a Resazurin solution (90 mg/l) are added. After 4 h incubation at 37° C., the fluorescence is measured by extinction at λ=544 nm and an emission of λ=590 nm (Wallac Victor2; Perkin Elmer, USA). For the calculation of the cell viability, the emission value from untreated cells is set as 100% viability and the fluorescence intensity of treated cells are set in relation to the values of untreated cells. Viabilities are expressed as % values. The corresponding IC50 values of the compounds for cytotoxic activity are determined from the concentration-effect curves by means of non-linear regression. The analysis of the data is performed using a biostatistical program (GraphPad Prism, USA).
Representative IC50 values for anti-proliferative/cytotoxic potency determined in the aforementioned assay follow from the following table, in which the numbers of the compound correspond to the numbers of the examples.
A general note: Alamar Blue is a resazurin reagent that responds to reducing activity.
On to `Cc1nc2nc(-c3ccc(CN4CCC(c5nc(-c6ccccc6)n[nH]5)CC4)cc3)c(-c3ccccc3)cn2n1` [Example 83, 2-methyl-6-phenyl-5-(4-{[4-(3-phenyl-1H-1,2,4-triazol-5-yl)piperidin-1-yl]methyl}phenyl)[1,2,4]triazolo[1,5-a]pyrimidine], for which the IC50 was greater than 10 µM.

As for `c1ccc(-c2cn3nccc3nc2-c2ccc(CN3CCC(c4nc(-c5ccc[nH]5)n[nH]4)CC3)cc2)cc1` [Example 72, 6-Phenyl-5-[4-({4-[3-(1H-pyrrol-2-yl)-1H-1,2,4-triazol-5-yl]piperidin-1-yl}methyl)phenyl]pyrazolo[1,5-a]pyrimidine], the IC50 is less than 10 µM.

Take `c1ccc(-c2cn3nccc3nc2-c2ccc(CN3CCC(c4cc(-c5ccccn5)n[nH]4)CC3)cc2)cc1` [Example 76, 6-Phenyl-5-(4-{[4-(3-pyridin-2-yl-1H-pyrazol-5-yl)piperidin-1-yl]methyl}phenyl)pyrazolo[1,5-a]pyrimidine]: the IC50 was greater than 10 µM. Take `Cc1nc2nc(-c3ccc(CN4CCC(c5cc(-c6ccccn6)n[nH]5)CC4)cc3)c(-c3ccccc3)cn2n1` [Example 46, 2-Methyl-6-phenyl-5-(4-{[4-(3-pyridin-2-yl-1H-pyrazol-5-yl)piperidin-1-yl]methyl}phenyl)[1,2,4]triazolo[1,5-a]pyrimidine]: the IC50 was greater than 10 µM. Under `C#Cc1nc2nc(-c3ccc(CN4CCC(c5n[nH]c(-c6ccccn6)n5)CC4)cc3)c(-c3ccccc3)cn2n1` [Example 53, 2-Ethynyl-6-phenyl-5-(4-{[4-(5-pyridin-2-yl-1H-1,2,4-triazol-3-yl)piperidin-1-yl]methyl}phenyl)[1,2,4]triazolo[1,5-a]pyrimidine] stands less than 10 µM. As for `O=C(O)c1cc2nc(-c3ccc(CN4CCC(c5n[nH]c(-c6ccccn6)n5)CC4)cc3)c(-c3ccccc3)cn2n1` [Example 79, 6-Phenyl-5-(4-{[4-(5-pyridin-2-yl-1H-1,2,4-triazol-3-yl)piperidin-1-yl]methyl}phenyl)pyrazolo[1,5-a]pyrimidine-2-carboxylic acid], the IC50 was less than 10 µM.

As for `Cc1nc2nc(-c3ccc(CN4CCC(c5n[nH]c(-c6ccncc6)n5)CC4)cc3)c(-c3ccccc3)cn2n1` [Example 47, 2-Methyl-6-phenyl-5-(4-{[4-(5-pyridin-4-yl-1H-1,2,4-triazol-3-yl)piperidin-1-yl]methyl}phenyl)[1,2,4]triazolo[1,5-a]pyrimidine], the IC50 is less than 10 µM.

With `c1ccc(-c2cn3ccnc3nc2-c2ccc(CN3CCC(c4n[nH]c(-c5ccccn5)n4)CC3)cc2)cc1` [Example 85, 6-phenyl-7-{4-[4-(5-pyridin-2-yl-1H-[1,2,4]triazol-3-yl)-piperidin-1-ylmethyl]-phenyl}-imidazo[1,2-a]pyrimidine], the IC50 is greater than 10 µM. For `COc1nc2nc(-c3ccc(CN4CCC(c5n[nH]c(-c6ccccn6)n5)CC4)cc3)c(-c3ccccc3)cn2n1` [Example 66, 2-Methoxy-6-phenyl-5-(4-{[4-(5-pyridin-2-yl-1H-1,2,4-triazol-3-yl)piperidin-1-yl]methyl}phenyl)[1,2,4]triazolo[1,5-a]pyrimidine] the value was less than 10 µM; for `Cc1nc2nc(-c3ccc(CN4CCC(c5n[nH]c(-c6nccs6)n5)CC4)cc3)c(-c3ccccc3)cn2n1` [Example 43, 2-Methyl-6-phenyl-5-[4-({4-[5-(1,3-thiazol-2-yl)-1H-1,2,4-triazol-3-yl]piperidin-1-yl}methyl)phenyl][1,2,4]triazolo[1,5-a]pyrimidine], less than 10 µM. Under `c1ccc(-c2cn3ccnc3nc2-c2ccc(CN3CCC(c4nc(-c5ccco5)n[nH]4)CC3)cc2)cc1` [Example 82, 7-[4-({4-[3-(2-furyl)-1H-1,2,4-triazol-5-yl]piperidin-1-yl}methyl)phenyl]-6-phenylimidazo[1,2-a]pyrimidine] stands greater than 10 µM; under `Cc1nc2nc(-c3ccc(CN4CCC(c5nc(-c6ccco6)n[nH]5)CC4)cc3)c(-c3ccccc3)cn2n1` [Example 80, 5-[4-({4-[3-(2-furyl)-1H-1,2,4-triazol-5-yl]piperidin-1-yl}methyl)phenyl]-2-methyl-6-phenyl[1,2,4]triazolo[1,5-a]pyrimidine], greater than 10 µM; under `c1ccc(-c2cn3nccc3nc2-c2ccc(CN3CCC(c4nc(-c5ncccn5)n[nH]4)CC3)cc2)cc1` [Example 69, 6-Phenyl-5-(4-{[4-(3-pyrimidin-2-yl-1H-1,2,4-triazol-5-yl)piperidin-1-yl]methyl}phenyl)pyrazolo[1,5-a]pyrimidine], greater than 10 µM. `COC(=O)c1cc2nc(-c3ccc(CN4CCC(c5n[nH]c(-c6ccccn6)n5)CC4)cc3)c(-c3ccccc3)cn2n1` [Example 77, Methyl 6-phenyl-5-(4-{[4-(5-pyridin-2-yl-1H-1,2,4-triazol-3-yl)piperidin-1-yl]methyl}phenyl)pyrazolo[1,5-a]pyrimidine-2-carboxylate]: the IC50 was less than 10 µM. With `Cc1cccc(-c2n[nH]c(C3CCN(Cc4ccc(-c5nc6nc(C)nn6cc5-c5ccccc5)cc4)CC3)n2)n1` [Example 74, 2-Methyl-5-[4-({4-[3-(6-methylpyridin-2-yl)-1H-1,2,4-triazol-5-yl]piperidin-1-yl}methyl)phenyl]-6-phenyl[1,2,4]triazolo[1,5-a]pyrimidine], the IC50 is less than 10 µM.

Take `Cc1cccc(-c2n[nH]c(C3CCN(Cc4ccc(-c5nc6ccnn6cc5-c5ccccc5)cc4)CC3)n2)n1` [Example 75, 5-[4-({4-[3-(6-Methylpyridin-2-yl)-1H-1,2,4-triazol-5-yl]piperidin-1-yl}methyl)phenyl]-6-phenylpyrazolo[1,5-a]pyrimidine]: the IC50 is less than 10 µM. Under `COc1ccnc(-c2nc(C3CCN(Cc4ccc(-c5nc6nccn6cc5-c5ccccc5)cc4)CC3)n[nH]2)c1` [Example 84, 7-[4-({4-[5-(4-methoxypyridin-2-yl)-1H-1,2,4-triazol-3-yl]piperidin-1-yl}methyl)phenyl]-6-phenylimidazo[1,2-a]pyrimidine] stands less than 10 µM; under `CN(C)c1nc2nc(-c3ccc(CN4CCC(c5n[nH]c(-c6ccccn6)n5)CC4)cc3)c(-c3ccccc3)cn2n1` [Example 62, N,N-Dimethyl-6-phenyl-5-(4-{[4-(5-pyridin-2-yl-1H-1,2,4-triazol-3-yl)piperidin-1-yl]methyl}phenyl)[1,2,4]triazolo[1,5-a]pyrimidin-2-amine], less than 10 µM. For `FC(F)(F)c1nc2nc(-c3ccc(CN4CCC(c5n[nH]c(-c6ccccn6)n5)CC4)cc3)c(-c3ccccc3)cn2n1` [Example 63, 6-Phenyl-5-(4-{[4-(5-pyridin-2-yl-1H-1,2,4-triazol-3-yl)piperidin-1-yl]methyl}phenyl)-2-(trifluoromethyl)[1,2,4]triazolo[1,5-a]pyrimidine] the value was greater than 10 µM.

In the case of `Cc1nc2nc(-c3ccc(CN4CCC(c5n[nH]c(-c6ccccn6)n5)CC4)cc3)c(-c3ccccc3)c(N(C)C)n2n1` [Example 64, N,N,2-Trimethyl-6-phenyl-5-(4-{[4-(5-pyridin-2-yl-1H-1,2,4-triazol-3-yl)piperidin-1-yl]methyl}phenyl)[1,2,4]triazolo[1,5-a]pyrimidin-7-amine], the IC50 is less than 10 µM. For `Cc1cc2nc(-c3ccc(CN4CCC(c5n[nH]c(-c6ccccn6)n5)CC4)cc3)c(-c3ccccc3)cn2n1` [Example 44, 2-Methyl-6-phenyl-5-(4-{[4-(5-pyridin-2-yl-1H-1,2,4-triazol-3-yl)piperidin-1-yl]methyl}phenyl)pyrazolo[1,5-a]pyrimidine] the value was greater than 10 µM.
